Data taken from patent US20210213097A1, “PEPTIDE INTERACTING WITH TOLL-LIKE RECEPTOR 2 AND THE COMPOSITION COMPRISING THE SAME” (NATIONAL TAIPEI UNIVERSITY OF TECHNOLOGY, priority 2020, published 2021).
Entries after “also recorded” stand apart in the source; their conditions may differ.

What was measured:
zebra fish [1] = assay: Zebra fish fed 6 times per day (autofat animal model), Example 5: body weight and glucose; type: in vivo; conditions: Example 5, normal diet 6 times per day; for level of glucose: Day 13, FIG. 8 lower panel; for body weight at end of experimentation (Day 13) compared to the original level and the GST group: FIG. 8
Experimental: Zebra fish was bred in 25° C. water (pH 6.5-7.5, conductivity 250-750 S·m^−1, NH3<0.25 ppm, NO2<0.25 ppm, NO3<0.5 ppm) and was fed with normal diet bid. (brine shrimp). Each group of experimentation comprises 10 zebra fish (n=10). The gavage feeding of Zebra fish follows the protocol disclosed in Collymore et al. (Journal of Visualized Experiment (2013)). During 13 days of experimentation, the zebra fish were fed once a day with the peptide fragments as disclosed herein in a 1× dose of 0.03 μg/day/fish. The weight of zebra fish was measured respectively on day 0, 1, 3, 6, 9, 12 and 13. In the present example, five groups of zebra fish were administered with the peptides as disclosed herein: The material and method employed in the present example is similar to that of Example 3, which is not repeated herein, except the following difference. In the present example, Zebra fish was bred and fed with normal diet (brine shrimp) 6 times per day and also with the peptide as disclosed herein once per day, to induce an autofat animal model. In the present example, five groups of zebra fish were administered with the peptides as disclosed herein: […]

zebra fish [2] = assay: Treatment of obesity in zebra fish, Example 3: body weight and glucose; type: in vivo; conditions: 0.03 μg/day/fish
Text: Zebra fish has been for a long time used as a model of obesity in many reports (Hasumura et al. Nutrition & Metabolism (2012); […] et al. Nutrition & Metabolism (2011); Oka et al. BMC Physiology (2010); Shimada et al. Nutrition & Metabolism (2015); Meguro et al. Scientific Reports (2019); Montalbano et al. Endocrine (2018); Yang et al. Cancer (2019)), which is also used herein as the subject of treatment of obesity with the peptides as disclosed herein. All peptides used in the present example were purified through CHT beads to remove endotoxin. LAL assay was further conducted and it was confirmed that the residue of endotoxin was under 0.25 EU/ml. Zebra fish was bred in 25° C. water (pH 6.5-7.5, conductivity 250-750 S·m^-1, NH3<0.25 ppm, NO2<0.25 ppm, NO3<0.5 ppm) and was fed with normal diet bid. (brine shrimp). Each group of experimentation comprises 10 zebra fish (n=10). The gavage feeding of Zebra fish follows the protocol disclosed in Collymore et al. (Journal of Visualized Experiment (2013)). During 13 days of experimentation, the zebra fish were fed once a day with the peptide fragments as disclosed herein in a 1× dose of 0.03 μg/day/fish. The weight of zebra fish was measured respectively on day 0, 1, 3, 6, 9, 12 and 13. In the present example, five groups of zebra fish were administered with the peptides as disclosed herein: […]

human TLR2 = target: T1, human TLR2 (Homo sapiens, UniProt O60603); assay: TLR induction screening in recombinant HEK-293 with NF-KB driven SEAP reporter; type: cell-based; conditions: final concentration 10 μg/ml; recombinant HEK-293 overexpressing human TLR; FIG. 1A
T1 construct: host or cells: recombinant HEK-293
T1 sequence (O60603 21-784): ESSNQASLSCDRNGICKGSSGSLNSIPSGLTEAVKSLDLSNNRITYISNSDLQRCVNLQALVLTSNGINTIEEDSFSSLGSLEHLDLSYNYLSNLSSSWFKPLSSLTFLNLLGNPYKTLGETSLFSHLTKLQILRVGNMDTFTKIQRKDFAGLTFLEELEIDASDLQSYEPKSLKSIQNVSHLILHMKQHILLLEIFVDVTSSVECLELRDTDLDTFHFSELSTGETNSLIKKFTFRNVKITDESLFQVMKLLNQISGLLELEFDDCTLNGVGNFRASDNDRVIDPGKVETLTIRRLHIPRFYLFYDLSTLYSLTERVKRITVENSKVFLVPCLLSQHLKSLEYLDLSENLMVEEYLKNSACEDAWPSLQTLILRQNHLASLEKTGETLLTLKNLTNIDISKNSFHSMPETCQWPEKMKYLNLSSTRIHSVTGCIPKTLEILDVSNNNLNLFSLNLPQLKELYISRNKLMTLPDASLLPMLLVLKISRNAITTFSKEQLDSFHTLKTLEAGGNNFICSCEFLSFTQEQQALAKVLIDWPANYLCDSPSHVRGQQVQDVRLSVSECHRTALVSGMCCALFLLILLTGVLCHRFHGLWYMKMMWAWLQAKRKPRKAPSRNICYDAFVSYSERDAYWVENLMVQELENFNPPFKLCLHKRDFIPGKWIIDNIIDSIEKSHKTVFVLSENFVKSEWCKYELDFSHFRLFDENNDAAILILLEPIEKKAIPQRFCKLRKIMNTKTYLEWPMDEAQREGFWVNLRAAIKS
Experimental: Human Embryonic Kidney Cells 293 (HEK-293) were treated with the peptide fragments as disclosed herein.
Samples and controls are tested in duplicate on recombinant HEK-293 cell lines. These cell lines functionally overexpress human TLR as well as a reporter gene which is a secreted alkaline phosphatase (SEAP). The production of this reporter gene is driven by a NF-KB inducible promoter. The level of activation is given as optical density values (OD).
Samples in 100 μg/ml were diluted to a final concentration of 10 μg/ml in the reaction volume. Sample and controls are tested in duplicated wells. BSA is used as negative control.
SEAP reporter is detected as OD value. OD value is subtracted by average non-induced (NI) value. The NI subtracted duplicates are averaged and presented in a histogram. The reagents and materials employed in the instant examples were provided by Invivogen.

[3] = test system: gene expression of MPX, IL10, CD86, and IL4; assay: RT-qPCR of gene expression in zebra fish treated with peptide, Example 3; type: in vivo; conditions: Day 13, FIG. 4
Experimental: Y axis (-ΔΔCT) represents the difference in the threshold cycle of amplification. **: P<0.01; ****: P<0.0001. Further, the RT(reversed-transcription)-qPCR was conducted to detect the quantity of gene expression of MPX, IL10, CD86, and IL4 in the zebra fish treated with AMSS according to the present example. […] (FIG. 4)

| Molecule | level of glucose (zebra fish [1]) | body weight at end of experimentation (Day 13) compared to the original level and the GST group (zebra fish [1]) | glucose detected in the serum of zebra fish (zebra fish [2]; Day 13, FIG. 3 lower panel) | reduction in body weight at end of experimentation (Day 13) (zebra fish [2]; Day 13 versus day 0, FIG. 3 upper panel) | change in body weight of zebra fish (zebra fish [2]; gavage once a day, 13 days, normal diet bid, FIG. 2) | reduction of body weight in average (zebra fish [2]; gavage once a day, end of experimentation, FIG. 2) | induction of TLR (SEAP reporter, OD) (human TLR2) | gene expression of IL4 [3] | gene expression of IL10 [3] | gene expression of MPX [3] |
| --- | --- | --- | --- | --- | --- | --- | --- | --- | --- | --- |
| AMS5-2: fragment of Amuc_1100*, sequence GLSKFIKVYRPQL (listed as Akkermansia muciniphila) | reduced | further reduced | – | – | – | – | – | – | – | – |
| AMS5: fragment of Amuc_1100*, sequence AINSLVNKLAECGLSKFIKVYRPQL (listed as Akkermansia muciniphila) | – | – | did not reduce | shows statistical significance | significant reduction in body weight | approximately 20 mg | strongly and specifically activated; also recorded: capable to activate TLR2; also recorded: shows the activity for induction of TLR | significantly reduced | significantly reduced | did not |
| Amuc_1100*: protein Amuc_1100 of Akkermansia muciniphila which does not include the transmembrane domain, SEQ ID NO.1 (protein, listed as Akkermansia muciniphila) IVNSKRSELDKKISIAAKEIKSANAAEITPSRSSNEELEKELNRYAKAVGSLETAYKPFLASSALVPTTPTAFQNELKTFRDSLISSCKKKNILITDTSSWLGFQVYSTQAPSVQAASTLGFELKAINSLVNKLAECGLSKFIKVYRPQLPIETPANNPEESDEADQAPWTPMPLEIAFQGDRESVLKAMNAITGMQDYLFTVNSIRIRNERMMPPPIANPAAAKPAAAQPATGAASLTPADEAAAPAAPAIQQVIKPYMGKEQVFVQVSLNLVHFNQPKAQEPSED | reduced | further reduced | – | – | – | – | – | – | – | – |
